According to patent US4921865A, “Aminoacylates of glycerol acetal” (Societe de Conseils de Recherches et d'Applications …, priority 1987, dated 1990):
pIC50: −log10 of the molar value.

What was measured:
[1] = molecular target: T1, [^3 H]-PAF binding, platelet membrane (Oryctolagus cuniculus, UniProt G1TEI7); experiment: inhibition of specific [3H]-PAF binding to rabbit platelet membranes; conditions: 1 nM [3H]-PAF, 0°C 1 h 30
T1 construct: Platelet membrane homogenate was stored at -80° C; from tissue; host or cells: rabbit platelets (membrane homogenate from lysed washed platelets)
Procedure: Synthetic tritiated [^3 H]-PAF used was in ethanol solution with a specific activity of 59.5 ci/mmols. Unlabelled PAF and lyso-PAF were solubilized in ethanol solution and stored at -80° C. The compounds were solubilized in DMSO.
Rabbit whole blood (6 volumes) was drawn from the central ear artery into 1 volume of ACD solution (citric acide 1.4 g, sodium citrate 2 5 g, Dextrose 2 g per 100 ml of H2 O) and centrifuged at 150 g for 15 minutes. The platelet-rich plasma (PRP) was carefully removed and centrifuged for 15 minutes at 1000 g. The platelet pellet was then washed 3 times: twice in Tris-HCl buffer 10 mM, pH 7.4 containing NaCl 150 mM, MgCl2 5 mM, EDTA 2 mM and the last time in the same but sodium-free buffer.
The platelet pellet was resuspended in this latter buffer, quickly frozen in liquid nitrogen and slowly thawed at room temperature for at least 3 times as described by T. Y. Shen et al. The lysed platelets were centrifuged at 100,000 g for 30 minutes in a BECKMAN model L8.55 ultra centrifuge (rotor 50.2 Ti). Platelet membrane homogenate was stored at -80° C. and used within two weeks without noticeable changes in PAF-acether binding characteristics.
Protein contain was determined by the Lowry method using bovine serum albumine as standard.
60 to 100 μg of membrane proteins were added to a final volume of 1 ml in plastic tubes containing 1 nM [^3 H]-PAF in Tris-HCl 10 mM pH 7 buffer containing 0.025 % bovine serum albumin and incubated with or without unlabelled PAF or PAF-antagonists. The incubation was carried out for 1 h 30 at 0° C. The bound [^3 H]-PAF was separated from the free [^3 H]-PAF by immediate filtration through whatman GF/C glass fiber filters under vacuum (Brandel system). The reaction and the filters were washed 3 times with 5 ml of ice-cold buffer. The filters were then placed into polyethylene phials filled up with 10 ml of liquid scintillation fluid and the radioactivity was measured by an LKB β counter with 45% efficiency.
The non specific binding was determined in the presence of 10^-6 M of unlabelled PAF. The specific binding was calculated by substracting non specific binding from the total binding. The inhibition by compounds on the specific [^3 H]-PAF binding was determined as the percent inhibition by the equation: [formula]

PAF-induced leukopenia = PAF-induced leukopenia in the guinea pig; format: in vivo; conditions: for Percentage Variation (leukopenia): vs control
Procedure: (§1) Male Guinea-pig (400-500 g) were anesthetized with urethane (1.5 g/kg: IP) prior to be tracheotomized and ventilated with a respiratory pump (UGO BASILE) (70-80 breath/minute, 1 ml air/100 g/breath) to abolish spontaneous respiration a pneumothorax was performed. The resistance to inflation was measured with a pressure transducer (UGO BASILE) against an initial pressure of 10 cm H2 O according to Konzett and Rossler. Animals were allocated into groups and were treated or not by the compounds of the invention (0.05, 0.1, 0.5, 1 and 5 mg/kg).The products were given IV 1 hour before challenge with PAF.
(§2) The animals were challenged with various doses of PAF ([…]) given intravenously, and the variations in the resistance to inflation were recorded.
(§3) Blood samples were collected prior to and 1,5 and 10 minutes following to PAF-challenge. Forty μl of blood were diluted in 10 ml isoton (Coultronics, France); erythrocytes were lysed with Zapoglobin (France) prior leukocytes were counted in a coulter counter. To determine platelet number, 40 μl of blood were diluted in 2 ml isoton and centrifuged at 100 runs per minute for 30 secondes, 100 μl of the supernatant were collected and further diluted in 10 ml isoton prior counting in a coulter counter.

[2] = system: PAF-induced thrombocytopenia; experiment: PAF-induced thrombocytopenia in the guinea pig; format: in vivo; conditions: for Percentage Variation (thrombocytopenia): vs control; for Percentage Decrease in leukocyte number: thrombocytopenia
Procedure: as §1, §2, §3

[3] = system: polymorphonuclear leukocytes (PMNs); experiment: antagonism of polymorphonuclear leukocyte aggregation induced by PAF; format: cell-based, rat (Wistar); conditions: rat PMNs, PAF 10^-8
Procedure: Polymorphonuclear leukocytes (PMNs) were obtained as described by A. W. Ford-Hutchinson et al. (Br - J. Pharmacol. 76, 367-371, 1982). Cell suspensions ([…]) were prepared from peritoneal exudates obtained after a 5 ml IP injection of sodium caseinate 12% (w/v) to male Wistar rats, 300 g body weight.
After centrifugation, cells were washed with Hanks and resuspended in MEM/Hepes 30 mM medium (PM=7.4) at a concentration of 10^7 cells/ml. Cytochalasin B (5 μg/ml) was added 10 minutes before trigering aggregation to amplify the PMNs aggregation. The light transmittance through the cell suspension (400 μl) was measured under a 900 R/mn magnetic stirring, with a dual beam aggregometer (Chronolog Corp. Coultronics.)
The control cuvet is the cell suspension diluted to 20% of the cell count with MEM and the difference represents 100% transmittance. Change in transmittance, which occurs when PAF is added, was continuously recorded.
Drugs solubilized in MEM/Hepes were added (4 μl) to PMNs suspension 2 minutes before PAF addition.

T1 sequence (G1TEI7 1-342): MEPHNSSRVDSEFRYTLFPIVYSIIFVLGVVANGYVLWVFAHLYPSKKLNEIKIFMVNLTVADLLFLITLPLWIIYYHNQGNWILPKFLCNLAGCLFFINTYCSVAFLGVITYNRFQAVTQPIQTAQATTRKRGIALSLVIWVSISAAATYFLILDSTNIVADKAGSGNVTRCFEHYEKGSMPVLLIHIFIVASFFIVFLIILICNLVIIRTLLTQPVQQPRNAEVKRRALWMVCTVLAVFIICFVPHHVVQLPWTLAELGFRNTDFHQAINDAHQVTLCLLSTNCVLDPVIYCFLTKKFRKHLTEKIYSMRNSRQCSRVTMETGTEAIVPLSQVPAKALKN

Question: What does the source list for `CCCCCCCCCCCCCCCCCC1(C)OCC(COC(=O)CCCCC[n+]2cccc3ccccc32)O1` (stereo not shown) [Example 10, 2-heptadecyl 2-methyl 4-[6'-(N-quinolinium)hexanoyloxymethyl) 1,3-dioxolanbromide]?
Answer: pIC50 [1]: 7.46; Percentage Decrease of leukocyte number (PAF-induced leukopenia; 0.1 mg/kg IV, 1 mn): 38.8 +/- 6.3%; Percentage Variation (leukopenia) (PAF-induced leukopenia; 0.1 mg/kg IV, 1 mn): +6.3%; Percentage Decrease of leukocyte number (PAF-induced leukopenia; 0.1 mg/kg IV, 5 mn): 38.9 +/- 5.7%; Percentage Variation (leukopenia) (PAF-induced leukopenia; 0.1 mg/kg IV, 5 mn): +35.5%; Percentage Decrease of leukocyte number (PAF-induced leukopenia; 0.1 mg/kg IV, 10 mn): 41.2 +/- 6.5%; Percentage Variation (leukopenia) (PAF-induced leukopenia; 0.1 mg/kg IV, 10 mn): +53.2%; Percentage Decrease of leukocyte number (PAF-induced leukopenia; 0.5 mg/kg IV, 1 mn): 17.0 +/- 12.9%; Percentage Variation (leukopenia) (PAF-induced leukopenia; 0.5 mg/kg IV, 1 mn): -58.9%; Percentage Decrease of leukocyte number (PAF-induced leukopenia; 0.5 mg/kg IV, 5 mn): 9.0 +/- 11.8%; Percentage Variation (leukopenia) (PAF-induced leukopenia; 0.5 mg/kg IV, 5 mn): -68.6%; Percentage Decrease of leukocyte number (PAF-induced leukopenia; 0.5 mg/kg IV, 10 mn): -7.6 +/- 17.5%; Percentage Variation (leukopenia) (PAF-induced leukopenia; 0.5 mg/kg IV, 10 mn): +128.3%; Percentage Decrease of leukocyte number (PAF-induced leukopenia; 1 mg/kg IV, 1 mn): 24.1 +/- 6.8%; Percentage Variation (leukopenia) (PAF-induced leukopenia; 1 mg/kg IV, 1 mn): -41.0%; Percentage Decrease of leukocyte number (PAF-induced leukopenia; 1 mg/kg IV, 5 mn): 9.3 +/- 9.4%; Percentage Variation (leukopenia) (PAF-induced leukopenia; 1 mg/kg IV, 5 mn): -67.6%; Percentage Decrease of leukocyte number (PAF-induced leukopenia; 1 mg/kg IV, 10 mn): 8.9 +/- 13.2%; Percentage Variation (leukopenia) (PAF-induced leukopenia; 1 mg/kg IV, 10 mn): -66.9%; Percentage Variation (thrombocytopenia) ([2]; 0.1 mg/kg IV, 1 mn): -21.7%; Percentage Variation (thrombocytopenia) ([2]; 0.1 mg/kg IV, 5 mn): 0%; Percentage Variation (thrombocytopenia) ([2]; 0.1 mg/kg IV, 10 mn): -7.2%; Percentage Variation (thrombocytopenia) ([2]; 0.5 mg/kg IV, 1 mn): -59.9%; Percentage Variation (thrombocytopenia) ([2]; 0.5 mg/kg IV, 5 mn): -39.3%; Percentage Variation (thrombocytopenia) ([2]; 0.5 mg/kg IV, 10 mn): -33.8%; Percentage Variation (thrombocytopenia) ([2]; 1 mg/kg IV, 1 mn): -58.3%; Percentage Variation (thrombocytopenia) ([2]; 1 mg/kg IV, 5 mn): -55.0%; Percentage Variation (thrombocytopenia) ([2]; 1 mg/kg IV, 10 mn): -60.0%; inhibition of PAF-induced thrombocytopenia (in words) ([2]; pyridinium compound 0.5, 1 and 5 mg/kg IV, quinolinium compound 0.5 and 1 mg/kg IV): inhibit; Percentage Decrease in leukocyte number ([2]; 0.1 mg/kg IV, 1 mn): 51.1 +/- 12.1%; Percentage Decrease in leukocyte number ([2]; 0.1 mg/kg IV, 5 mn): 49.1 +/- 8.8%; Percentage Decrease in leukocyte number ([2]; 0.1 mg/kg IV, 10 mn): 45.0 +/- 9.7%; Percentage Decrease in leukocyte number ([2]; 0.5 mg/kg IV, 1 mn): 26.2 +/- 6.3%; Percentage Decrease in leukocyte number ([2]; 0.5 mg/kg IV, 5 mn): 29.8 +/- 1.7%; Percentage Decrease in leukocyte number ([2]; 0.5 mg/kg IV, 10 mn): 32.1 +/- 5.8%; Percentage Decrease in leukocyte number ([2]; 1 mg/kg IV, 1 mn): 19.3 +/- 1.4%; Percentage Decrease in leukocyte number ([2]; 1 mg/kg IV, 5 mn): 22.1 +/- 2.5%; Percentage Decrease in leukocyte number ([2]; 1 mg/kg IV, 10 mn): 19.4 +/- 3.6%; pIC50 ([3]; Leukocyte): 6.00; inhibition of PMN aggregation (in words) [3]: dose-dependently inhibit
